# Measured values as given in the supplement of paper PMC10307832.
# How the values were obtained:
# Assay in all cases: relative viability (nuclei count vs DMSO), 5 days (fraction); higher = more cells survive
# HARA = system: HARA
# In short: (§1)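 Five library-drug doses in √10 steps were combined with a fixed anchor-drug dose, or a single drug was given alone, by pin tool to lung cancer cell lines in 1536-well plates the day after seeding. Nuclei were stained and counted after 5 days. Relative viability is the nuclei count in treated wells over that in vehicle wells, taken as the median of duplicate plates.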
# PC-14 = system: PC-14
# In short: as §1
# EKVX = system: EKVX
# In short: as §1
# NCI-H358 = system: NCI-H358
# In short: as §1
# NCI-H1993 = system: NCI-H1993
# In short: as §1
# UMC-11 = system: UMC-11
# In short: as §1
# NCI-H1395 = system: NCI-H1395
# In short: as §1
# NCI-H1355 = system: NCI-H1355
# In short: as §1
# NCI-H322M = system: NCI-H322M
# In short: as §1
# NCI-H2347 = system: NCI-H2347
# In short: as §1
# HOP-62 = system: HOP-62
# In short: as §1
# NCI-H647 = system: NCI-H647
# In short: as §1
# NCI-H522 = conditions: first compound 0.04 µM
# In short: as §1
smiles,measurement,setting,value
Clc1ccc(Nc2nnc(Cc3ccncc3)c3ccccc23)cc1 [Vatalanib] + Cc1cc(Nc2cc(N3CCN(C)CC3)nc(Sc3ccc(NC(=O)C4CC4)cc3)n2)n[nH]1 [Tozasertib] (partner 0.1 µM),relative viability,HARA; first compound 0.04 µM,0.0991
same,relative viability,HARA; first compound 0.1265 µM,0.11
same,relative viability,HARA; first compound 0.4 µM,0.108
same,relative viability,HARA; first compound 1.265 µM,0.0945
same,relative viability,HARA; first compound 4 µM,0.112
same,relative viability,PC-14; first compound 0.04 µM,0.625
same,relative viability,PC-14; first compound 0.1265 µM,0.523
same,relative viability,PC-14; first compound 1.265 µM,0.51
same,relative viability,PC-14; first compound 4 µM,0.592
same,relative viability,EKVX; first compound 0.04 µM,0.392
same,relative viability,EKVX; first compound 0.1265 µM,0.363
same,relative viability,EKVX; first compound 0.4 µM,0.427
same,relative viability,EKVX; first compound 4 µM,0.343
same,relative viability,NCI-H358; first compound 0.04 µM,0.0969
same,relative viability,NCI-H358; first compound 0.1265 µM,0.0902
same,relative viability,NCI-H358; first compound 0.4 µM,0.08
same,relative viability,NCI-H358; first compound 1.265 µM,0.108
same,relative viability,NCI-H358; first compound 4 µM,0.0997
same,relative viability,NCI-H1993; first compound 0.04 µM,0.563
same,relative viability,NCI-H1993; first compound 0.1265 µM,0.566
same,relative viability,NCI-H1993; first compound 0.4 µM,0.608
same,relative viability,NCI-H1993; first compound 1.265 µM,0.542
same,relative viability,NCI-H1993; first compound 4 µM,0.592
same,relative viability,UMC-11; first compound 0.04 µM,0.198
same,relative viability,UMC-11; first compound 0.1265 µM,0.206
same,relative viability,UMC-11; first compound 0.4 µM,0.147
same,relative viability,UMC-11; first compound 1.265 µM,0.214
same,relative viability,UMC-11; first compound 4 µM,0.205
same,relative viability,NCI-H1395; first compound 0.04 µM,0.734
same,relative viability,NCI-H1395; first compound 0.1265 µM,0.75
same,relative viability,NCI-H1395; first compound 0.4 µM,0.747
same,relative viability,NCI-H1395; first compound 1.265 µM,0.648
same,relative viability,NCI-H1395; first compound 4 µM,0.792
same,relative viability,NCI-H1355; first compound 0.04 µM,0.585
same,relative viability,NCI-H1355; first compound 0.1265 µM,0.58
same,relative viability,NCI-H1355; first compound 0.4 µM,0.664
same,relative viability,NCI-H1355; first compound 1.265 µM,0.462
same,relative viability,NCI-H1355; first compound 4 µM,0.521
same,relative viability,NCI-H322M; first compound 0.04 µM,0.446
same,relative viability,NCI-H322M; first compound 0.1265 µM,0.441
same,relative viability,NCI-H322M; first compound 0.4 µM,0.553
same,relative viability,NCI-H322M; first compound 1.265 µM,0.479
same,relative viability,NCI-H322M; first compound 4 µM,0.463
same,relative viability,NCI-H2347; first compound 0.04 µM,0.462
same,relative viability,NCI-H2347; first compound 0.1265 µM,0.579
same,relative viability,NCI-H2347; first compound 0.4 µM,0.678
same,relative viability,NCI-H2347; first compound 1.265 µM,0.61
same,relative viability,NCI-H2347; first compound 4 µM,0.55
same,relative viability,HOP-62; first compound 0.04 µM,0.401
same,relative viability,HOP-62; first compound 0.1265 µM,0.335
same,relative viability,HOP-62; first compound 0.4 µM,0.396
same,relative viability,HOP-62; first compound 1.265 µM,0.336
same,relative viability,HOP-62; first compound 4 µM,0.405
same,relative viability,NCI-H647; first compound 0.04 µM,0.3
same,relative viability,NCI-H647; first compound 0.1265 µM,0.262
same,relative viability,NCI-H647; first compound 0.4 µM,0.352
same,relative viability,NCI-H647; first compound 1.265 µM,0.26
same,relative viability,NCI-H647; first compound 4 µM,0.259
same,relative viability,NCI-H522,0.565
